SMILES strings stand for the structures. Counter-ions that a name gives are not always drawn. Some results are limits rather than exact numbers.

Experiment [1] has as its system muscle progenitors (hMP) from DMD hiPSC or WT hiPSC. Nature of the experiment: Myotube assay: myogenic activity (total myotube area per well). The note with it: Homo sapiens, 72 h; myotube assay, compounds incubated 3 days; read-out: MA (normalized Myotube Area, efficacy). The class given is cell-based, human. An outline of the steps:
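DMD or WT hiPSC-derived muscle progenitors plated on collagen I in K5 medium with 5 μM Y-27632, treated with compound (1.5 nM–30 μM) for 3 days at 37° C. Cells were fixed, stained for alpha-actinin and imaged for total myotube area per well. EC50 and normalized myotube area (MA) taken from duplicate-averaged data.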

Experiment [2] relates to satellite-like cells (Pax7-positive cells) in hMP. Nature of the experiment: Myotube assay: Pax7-positive (satellite-like) cell quantification. The class given is cell-based, human. Details: key to Pax7% (pool of Pax7-positive cells) / Pax7: −: Depletes the pool of cells, while positively affects the myotubes; +: Maintains or increases the pool of cells, with at least 1 of the highest concentration known to be cytotoxic; ++: Maintains or increases the pool of cells, without any toxicity. To be noted: myotube assay, compounds incubated 3 days. A digest of the protocol: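 DMD hiPSC-derived muscle progenitors (hMP) proliferated 4 days, then plated on collagen I in K5 medium with 5 μM Y-27632. Compound added at 1.5 nM–30 μM for 3 days at 37° C, then cells fixed and immunostained. Pax7-positive cells counted as percentage of total nuclei, duplicates averaged.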

On to `CSc1cc(Oc2ccnc3[nH]c(=O)cnc23)ccc1NC(=O)Nc1cc(C(C)(C)C)no1` [(bx), 1-(3-(tert-butyl)isoxazol-5-yl)-3-(2-(methylthio)-4-((3-oxo-3,4-dihydropyrido[2,3-b]pyrazin-8-yl)oxy)phenyl)urea], for which the Emax in experiment [1] is not below 75%. For the same compound, the “Pax7% (pool of Pax7-positive cells)” value in experiment [2] is recorded as “++”.

For the compound `CSc1cc(Oc2ccnc3c2CCC(=O)N3)ccc1NC(=O)Nc1cc(C(C)(C)C)nn1-c1ccc(C)cc1` [(by), 1-(3-(tert-butyl)-1-(p-tolyl)-1H-pyrazol-5-yl)-3-(2-(methylthio)-4-((7-oxo-5,6,7,8-tetrahydro-1,8-naphthyridin-4-yl)oxy)phenyl)urea], the Emax in experiment [1] is not below 75%. The “Pax7% (pool of Pax7-positive cells)” value in experiment [2] is listed as “+”.

As for `CSc1cc(Oc2ccnc3c2CCC(=O)N3)ccc1NC(=O)Nc1cc(C(C)(C)C)nn1-c1cccc(Cl)c1` [(bz), 1-(3-(tert-butyl)-1-(3-chlorophenyl)-1H-pyrazol-5-yl)-3-(2-(methylthio)-4-((7-oxo-5,6,7,8-tetrahydro-1,8-naphthyridin-4-yl)oxy)phenyl)urea], in experiment [1], the Emax is not below 75%. Also, the “Pax7% (pool of Pax7-positive cells)” value in experiment [2] is “+”.

`CCC(C)c1cc(NC(=O)Nc2ccc(Oc3ccnc4[nH]c(=O)cnc34)cc2F)n(-c2ccccc2)n1` (stereo not drawn) [(c), 1-(3-(sec-butyl)-1-phenyl-1H-pyrazol-5-yl)-3-(2-fluoro-4-((3-oxo-3,4-dihydropyrido[2,3-b]pyrazin-8-yl)oxy)phenyl)urea]: in experiment [1], the Emax lay in the range of 50 to 75%. In experiment [2], the “Pax7% (pool of Pax7-positive cells)” value is “+”.

As to `CSc1cc(Oc2ccnc3[nH]c(=O)cnc23)ccc1NC(=O)Nc1nc(C(C)(C)C)cs1` [(ca), 1-(4-(tert-butyl)thiazol-2-yl)-3-(2-(methylthio)-4-((3-oxo-3,4-dihydropyrido[2,3-b]pyrazin-8-yl)oxy)phenyl)urea], the Emax in experiment [1] is not below 75%. In addition, the “Pax7% (pool of Pax7-positive cells)” value in experiment [2] is given as “++”.

Take `CSc1cc(Oc2ccnc3c2CCC(=O)N3)ccc1NC(=O)Nc1ncc(C(C)(C)C)s1` [(cb), 1-(5-(tert-butyl)thiazol-2-yl)-3-(2-(methylthio)-4-((7-oxo-5,6,7,8-tetrahydro-1,8-naphthyridin-4-yl)oxy)phenyl)urea]: the Emax in experiment [1] was not below 75%. Besides, the “Pax7% (pool of Pax7-positive cells)” value in experiment [2] was “++”.

As for `CSc1cc(Oc2ccnc3[nH]c(=O)cnc23)ccc1NC(=O)Nc1cc(C(C)(C)C)nn1-c1ccc(C#N)cc1` [(cc), 1-(3-(tert-butyl)-1-(4-cyanophenyl)-1H-pyrazol-5-yl)-3-(2-(methylthio)-4-((3-oxo-3,4-dihydropyrido[2,3-b]pyrazin-8-yl)oxy)phenyl)urea], in experiment [1], the Emax is not below 75%. For the same compound, the “Pax7% (pool of Pax7-positive cells)” value in experiment [2] is “+”.

On to `CSc1cc(Oc2ccnc3[nH]c(=O)cnc23)ccc1NC(=O)Nc1cc(C(C)(C)C)nn1-c1ccc(C)c(C)c1` [(cd), 1-(3-(tert-butyl)-1-(3,4-dimethylphenyl)-1H-pyrazol-5-yl)-3-(2-(methylthio)-4-((3-oxo-3,4-dihydropyrido[2,3-b]pyrazin-8-yl)oxy)phenyl)urea], for which the Emax in experiment [1] is not below 75%. In experiment [2], the “Pax7% (pool of Pax7-positive cells)” value is “++”.

On to `CSc1cc(Oc2ccnc3[nH]c(=O)cnc23)ccc1NC(=O)Nc1cc(C(C)(C)C)nn1-c1ccc(OCCN2CCCCC2)cc1` [(ce), 1-(3-(tert-butyl)-1-(4-(2-(piperidin-1-yl)ethoxy)phenyl)-1H-pyrazol-5-yl)-3-(2-(methylthio)-4-((3-oxo-3,4-dihydropyrido[2,3-b]pyrazin-8-yl)oxy)phenyl)urea], for which the Emax in experiment [1] is not below 75%. Besides, the “Pax7% (pool of Pax7-positive cells)” value in experiment [2] is given as “+”.

For the compound `CSc1cc(Oc2ccnc3[nH]c(=O)cnc23)ccc1NC(=O)Nc1cc(C(C)(C)C)nn1-c1ccc(OCCN2CCOCC2)cc1` [(cf), 1-(3-(tert-butyl)-1-(4-(2-morpholinoethoxy)phenyl)-1H-pyrazol-5-yl)-3-(2-(methylthio)-4-((3-oxo-3,4-dihydropyrido[2,3-b]pyrazin-8-yl)oxy)phenyl)urea], in experiment [1], the Emax is not below 75%. Besides, the “Pax7% (pool of Pax7-positive cells)” value in experiment [2] was “−”.

On to `CSc1cc(Oc2ccnc3c2CCC(=O)N3)ccc1NC(=O)Nc1cncc(C(F)(F)F)c1` [(cg), 1-(2-(methylthio)-4-((7-oxo-5,6,7,8-tetrahydro-1,8-naphthyridin-4-yl)oxy)phenyl)-3-(5-(trifluoromethyl)pyridin-3-yl)urea], for which the Emax in experiment [1] was not below 75%. In addition, the “Pax7% (pool of Pax7-positive cells)” value in experiment [2] is listed as “−”.

In the case of `CSc1cc(Oc2ccnc(N(CCN(C)C)C(=O)OC(C)(C)C)c2)ccc1NC(=O)Nc1cc(C(C)(C)C)nn1-c1ccccc1` [(ch), Tert-Butyl (4-(4-(3-(3-(tert-butyl)-1-phenyl-1H-pyrazol-5-yl)ureido)-3-(methylthio)phenoxy)pyridin-2-yl)(2-(dimethylamino)ethyl)carbamate], the Emax in experiment [1] is 50 to 75%. The “Pax7% (pool of Pax7-positive cells)” value in experiment [2] is on record as “+”.

As for `CSc1cc(Oc2ccnc3[nH]c(=O)cnc23)ccc1NC(=O)Nc1nnc(C(C)(C)C)o1` [(cj), 1-(5-(tert-butyl)-1,3,4-oxadiazol-2-yl)-3-(2-(methylthio)-4-((3-oxo-3,4-dihydropyrido[2,3-b]pyrazin-8-yl)oxy)phenyl)urea], in experiment [1], the Emax was not below 75%. For the same compound, in experiment [2], the “Pax7% (pool of Pax7-positive cells)” value was “+”.

Turning to `CSc1cc(Oc2ccnc(NCCN(C)C)c2)ccc1NC(=O)Nc1cc(C(C)(C)C)nn1-c1ccccc1` [(ck), 1-(3-(tert-butyl)-1-phenyl-1H-pyrazol-5-yl)-3-(4-((2-((2-(dimethylamino)ethyl)amino)pyridin-4-yl)oxy)-2-(methylthio)phenyl)urea Hydrochloride], the Emax in experiment [1] is not below 75%. Moreover, the “Pax7% (pool of Pax7-positive cells)” value in experiment [2] is reported as “+”.

Turning to `CSc1cc(Oc2ccnc3[nH]c(=O)cnc23)ccc1NC(=O)Nc1cc(C(C)(C)C)nn1-c1ccc(C)c(Cl)c1` [(cl), 1-(3-(tert-butyl)-1-(3-chloro-4-methylphenyl)-1H-pyrazol-5-yl)-3-(2-(methylthio)-4-((3-oxo-3,4-dihydropyrido[2,3-b]pyrazin-8-yl)oxy)phenyl)urea], in experiment [1], the Emax is not below 75%. Further, in experiment [2], the “Pax7% (pool of Pax7-positive cells)” value is reported as “+”.

With `CSc1cc(Oc2ccnc3[nH]c(=O)cnc23)ccc1NC(=O)Nc1cc(C(C)(C)C)nn1-c1ccc(F)c(Cl)c1` [(cm), 1-(3-(tert-butyl)-1-(3-chloro-4-fluorophenyl)-1H-pyrazol-5-yl)-3-(2-(methylthio)-4-((3-oxo-3,4-dihydropyrido[2,3-b]pyrazin-8-yl)oxy)phenyl)urea], the Emax in experiment [1] was not below 75%. Further, the “Pax7% (pool of Pax7-positive cells)” value in experiment [2] is given as “+”.

With `CSc1cc(Oc2ccnc(C(=O)Nc3ccccc3)c2)ccc1NC(=O)Nc1cc(C(C)(C)C)nn1-c1ccccc1` [(co), 4-(4-(3-(3-(tert-butyl)-1-phenyl-1H-pyrazol-5-yl)ureido)-3-(methylthio)phenoxy)-N-phenylpicolinamide], the Emax in experiment [1] is 25 to 50%. For the same compound, the “Pax7% (pool of Pax7-positive cells)” value in experiment [2] is given as “++”.

As to `CC(C)(C)c1cc(NC(=O)Nc2ccc(Oc3ccnc4[nH]c(=O)cnc34)c(OC(F)(F)F)c2)n(-c2ccccc2)n1` [(cp), 1-(3-(tert-butyl)-1-phenyl-1H-pyrazol-5-yl)-3-(4-((3-oxo-3,4-dihydropyrido[2,3-b]pyrazin-8-yl)oxy)-3-(trifluoromethoxy)phenyl)urea], the Emax in experiment [1] lay within 50 to 75%. Besides, the “Pax7% (pool of Pax7-positive cells)” value in experiment [2] is on record as “+”.

Source of the values: US20230089368A1, “POLYAROMATIC UREA DERIVATIVES AND THEIR USE IN THE TREATMENT OF MUSCLE DISEASES” (ANAGENESIS BIOTECHNOLOGIES S.A.S., priority 2019, published 2023).
